Consider 36 compounds from US6933317B2, “PGD2 receptor antagonistic pharmaceutical compositions” (Shionogi & Co. Ltd., priority 2000, dated 2005).

One data set deals with T1, PGD2 receptor (Homo sapiens, UniProt Q13258).
T1 construct: Peripheral blood was collected from a healthy volunteer; endogenous in cells; host or cells: washed human platelets from peripheral blood of a healthy volunteer
T1 sequence (Q13258 1-359): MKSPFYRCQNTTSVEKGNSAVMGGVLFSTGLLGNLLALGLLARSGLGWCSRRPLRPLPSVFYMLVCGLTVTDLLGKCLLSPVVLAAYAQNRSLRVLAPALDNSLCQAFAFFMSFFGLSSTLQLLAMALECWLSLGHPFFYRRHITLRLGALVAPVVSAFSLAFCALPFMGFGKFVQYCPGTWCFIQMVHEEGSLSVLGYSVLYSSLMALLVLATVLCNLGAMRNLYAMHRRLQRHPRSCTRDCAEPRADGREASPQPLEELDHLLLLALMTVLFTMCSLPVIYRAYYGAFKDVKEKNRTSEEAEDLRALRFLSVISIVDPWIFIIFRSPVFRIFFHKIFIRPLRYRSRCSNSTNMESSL
The data set can be described thus: Antagonistic activity against PGD2 receptor using human platelet (inhibition of PGD2-induced cAMP increase). It counts as cell-based. The conditions noted are these: 0.1 μM PGD2, cAMP by radioimmunoassay, read-out: Inhibitory activity for the increase of cAMP caused by PGD2 in human platelet IC50. The method, then: Experiment 2 Evaluation of Antagonistic Activity Against PGD2 Receptor Using Human Platelet
Peripheral blood was collected from a healthy volunteer using a syringe in which 1/9 volume of a citric acid/dextrose solution was previously added. The sample was subjected to centrifugation at 1200 rpm for 10 min to obtain the supernatant (PRP: platelet rich plasma). The resultant PRP was washed 3 times with a washing buffer and the number of platelets was counted with a micro cell counter. A suspension adjusted to contain the platelets at a final concentration of 5×10^8/ml was warmed at 37° C., then subjected to the pre-treatment with 3-isobutyl-1-methylxanthine (0.5 mM) for 5 min. To the suspension was added a test compound diluted at various concentration, and 10 minutes later, 0.1 μM PGD2 was added to induce the reaction 2 minutes later, hydrochloric acid was added to terminate the reaction. The platelet was destroyed with an ultrasonic homogenizer. After centrifugation, the cAMP in the supernatant was determined by radioimmunoassay.

Data set [1] is described as follows: Change of plasma concentration of drug in rat (half life of the disappearance after intravenous administration). In kind it is in vivo. The conditions noted are these: Jcl-SD male rats, 0.5 to 2 mg/kg, plasma concentration of unchanged compound. The method, then: Experiment 3 Change of Plasma Concentration of Drug in Rat
Compound (0.5 to 2 mg/kg) was administered intravenously to Jcl-SD male rats. The concentration of the unchanged compound was measured at 2, 5, 15, 30, 60, 120, and 240 min after the administration by the use of HPLC (determination limit; 0.05 μg/ml) and LC/MS/MS (determination limit; 0.001 μg/ml) and the half life of the disappearance was calculated. [drawing 387]

As usually defined, the IC50 is the point on the concentration scale where inhibition reaches its midpoint. The melting point is the temperature, or range, at which the solid turns liquid. Turning to `O=C(O)COCCCC[C@H]1[C@@H]2CC[C@@H](C2)[C@@H]1NC(=O)c1csc2ccc(O)cc12` [Ic-23], the melting point is 149 to 151 °C. For the same compound, the 50% inhibitory concentration (IC50) at PGD2 receptor is 10 nM. The like results for `CC1(C)[C@H]2C[C@H](CCCCOCC(=O)O)[C@@H](NC(=O)c3csc4ccc(F)cc34)[C@@H]1C2` [IIc-28] were, in that order, 144 to 146 °C and 13 nM. `Cc1ccc2scc(C(=O)N[C@H]3[C@H]4CC[C@H](C4)[C@@H]3CCCC/C=C/C(=O)O)c2c1` [Ia-20] gave a melting point of 129 to 131 °C. Moreover, at PGD2 receptor, the IC50 was found to be 17 nM.

Usually half-life stands for how long it takes for the measured level to halve. A higher half-life goes with slow loss. As to `CC1(C)[C@H]2C[C@H](CCCC/C=C/C(=O)O)[C@@H](NC(=O)c3ccsc3)[C@@H]1C2` [IIa-4], at PGD2 receptor, the IC50 is 19 nM. For the same compound, the half-life in data set [1] came to 21.6 min. Turning to `CC1(C)[C@H]2C[C@H](CCCCOCC(=O)O)[C@@H](NC(=O)c3coc4ccc(NC(N)=O)cc34)[C@@H]1C2` [IIc-135], the IC50 at PGD2 receptor came to 3 nM. On to `CC1(C)[C@H]2C[C@H](CCCCSCC(=O)O)[C@@H](NC(=O)c3cccc4ccsc34)[C@@H]1C2` [IIe-34], for which the melting point was in the range of 143 to 144 °C. The concentration for half-maximal inhibition (IC50) on PGD2 receptor amounted to 19 nM. Take `CC1(C)[C@H]2C[C@H](CCCCSCC(=O)O)[C@@H](NC(=O)c3csc4cccc(O)c34)[C@@H]1C2` [IIe-24]: the IC50 on PGD2 receptor came out at 5.7 nM. Take `CC1(C)[C@H]2C[C@H](CCCCOCC(=O)O)[C@@H](NC(=O)c3csc4ccc(C(N)=O)cc34)[C@@H]1C2` [IIc-99]: the melting point is 164 to 166 °C. Further, at PGD2 receptor, the IC50 stood at 6 nM. For `CC1(C)[C@H]2C[C@H](C/C=C\CCCC(=O)O)[C@@H](NC(=O)c3cccc4ccsc34)[C@@H]1C2` [Reference compound 2, reference compound], the half-life in data set [1] was determined as 17 min.

Take `COc1cc2c(C(=O)N[C@@H]3[C@@H](CCCCOCC(=O)O)C[C@H]4C[C@@H]3C4(C)C)csc2cc1F` [IIc-129]: on PGD2 receptor, the IC50 amounted to 18 nM. As to `CC1(C)[C@H]2C[C@H](CCCCOCC(=O)O)[C@@H](NC(=O)c3csc4ccccc34)[C@@H]1C2` [IIc-17], the melting point lay in the range of 125 to 126 °C. Besides, the IC50 on PGD2 receptor was determined as 5.4 nM. On to `CC1(C)[C@H]2C[C@H](CCCC/C=C/C(=O)O)[C@@H](NC(=O)c3cc4ccsc4[nH]3)[C@@H]1C2` [IIa-66], for which, on PGD2 receptor, the IC50 is 17 nM. On to `CC1(C)[C@H]2C[C@H](CCCC/C=C/C(=O)O)[C@@H](NC(=O)c3coc4cc(F)ccc34)[C@@H]1C2` [IIa-54], for which the half-inhibitory concentration (IC50) at PGD2 receptor is 15 nM.

With `Cc1cc(O)cc2c(C(=O)N[C@@H]3[C@@H](CCCCOCC(=O)O)C[C@H]4C[C@@H]3C4(C)C)coc12` [IIc-81], on PGD2 receptor, the IC50 was found to be 8 nM. `O=C(O)/C=C/CCCC[C@H]1[C@@H]2CC[C@@H](C2)[C@@H]1NC(=O)c1csc2ccccc12` [Ia-17] registered a melting point of 155 to 157 °C. Moreover, the IC50 at PGD2 receptor was 11 nM. As to `O=C(O)/C=C/CCCC[C@H]1[C@@H]2CC[C@@H](C2)[C@@H]1NC(=O)c1cc2sccc2[nH]1` [Ia-65], the IC50 at PGD2 receptor was 18 nM. Regarding `CCOC(=O)Nc1ccc2scc(C(=O)N[C@@H]3[C@@H](CCCCC(=O)O)C[C@H]4C[C@@H]3C4(C)C)c2c1` [IIf-84], on PGD2 receptor, the half-maximal inhibitory concentration (IC50) worked out at 20 nM.

In the case of `CC1(C)[C@H]2C[C@H](C/C=C\CCCC(=O)O)[C@@H](NC(=O)c3ccsc3)[C@@H]1C2` [Reference compound 1, reference compound], the half-life in data set [1] was 8 min.

Turning to `CC1(C)[C@H]2C[C@H](CCCC/C=C/C(=O)O)[C@@H](NC(=O)c3csc4ccc(F)cc34)[C@@H]1C2` [IIa-28], the IC50 at PGD2 receptor was 16 nM. On to `CC1(C)[C@H]2C[C@H](CCCCOCC(=O)O)[C@@H](NC(=O)c3csc4ccc(CNC(N)=O)cc34)[C@@H]1C2` [IIc-97], for which the IC50 at PGD2 receptor was determined as 11 nM. Still for that read-out and setting: the same measure for `CC1(C)[C@H]2C[C@H](CCCC/C=C/C(=O)O)[C@@H](NC(=O)c3csc4ccccc34)[C@@H]1C2` [IIa-17]: 15 nM; for `CC1(C)[C@H]2C[C@H](CCCCOCC(=O)O)[C@@H](NC(=O)c3csc4cc(O)ccc34)[C@@H]1C2` [IIc-22]: 4.6 nM. As for `CC1(C)[C@H]2C[C@H](CCCCSCC(=O)O)[C@@H](NC(=O)c3csc4ccc(F)cc34)[C@@H]1C2` [IIe-28], the melting point fell in the range of 197 to 199 °C. Moreover, at PGD2 receptor, the concentration for half-maximal inhibition (IC50) stood at 17 nM. With `CC1(C)[C@H]2C[C@H](CCCC/C=C/C(=O)O)[C@@H](NC(=O)c3csc4cc(O)ccc34)[C@@H]1C2` [IIa-22], on PGD2 receptor, the IC50 came out at 3.7 nM.

Consider `CC1(C)[C@H]2C[C@H](CCCCOCC(=O)O)[C@@H](NC(=O)c3csc4cc(F)c(O)cc34)[C@@H]1C2` [IIc-128], for which the IC50 on PGD2 receptor was 5 nM. As to `Cc1ccc2scc(C(=O)N[C@@H]3[C@@H](CCCCOCC(=O)O)C[C@H]4C[C@@H]3C4(C)C)c2c1` [IIc-20], the melting point was in the range of 87 to 90 °C. The IC50 at PGD2 receptor came out at 15 nM.

As for `CC1(C)[C@H]2C[C@H](CCCCSCC(=O)O)[C@@H](NC(=O)c3csc4cc(O)ccc34)[C@@H]1C2` [IIe-22], the IC50 on PGD2 receptor turned out to be 4.8 nM. `CC1(C)[C@H]2C[C@H](CCCC/C=C/C(=O)O)[C@@H](NC(=O)c3coc4ccc(O)cc34)[C@@H]1C2` [IIa-52] displayed a melting point of 159 to 160 °C. In addition, the half-inhibitory concentration (IC50) at PGD2 receptor is 3.7 nM. Further, in data set [1], the half-life stood at 16.7 min.

Consider `CC1(C)[C@H]2C[C@H](CCCCOCC(=O)O)[C@@H](NC(=O)c3csc4ccc(NC(N)=O)cc34)[C@@H]1C2` [IIc-86], for which the IC50 at PGD2 receptor stood at 8 nM. For `CC1(C)[C@H]2C[C@H](CCCCOCC(=O)O)[C@@H](NC(=O)c3csc4cccc(O)c34)[C@@H]1C2` [IIc-24], on PGD2 receptor, the IC50 came to 13 nM. Regarding `CC1(C)[C@H]2C[C@H](C/C=C\CCCC(=O)O)[C@@H](NC(=O)c3coc4ccc(O)cc34)[C@@H]1C2` [Reference compound 3], the half-life in data set [1] was 8.7 min. `CC1(C)[C@H]2C[C@H](CCCCOCC(=O)O)[C@@H](NC(=O)c3csc4ccc(CNS(C)(=O)=O)cc34)[C@@H]1C2` [IIc-96]: on PGD2 receptor, the IC50 amounted to 17 nM.

Compound `CC1(C)[C@H]2C[C@H](CCCC/C=C/C(=O)O)[C@@H](NC(=O)c3cccc4ccsc34)[C@@H]1C2` [IIa-34] returned a melting point of 141 to 142 °C. Further, on PGD2 receptor, the IC50 stood at 14 nM. In data set [1], the half-life amounted to 34.6 min. Consider `CC1(C)[C@H]2C[C@H](CCCCOCC(=O)O)[C@@H](NC(=O)c3ccsc3)[C@@H]1C2` [IIc-4], for which the IC50 at PGD2 receptor was 18 nM. In addition, in data set [1], the half-life turned out to be 44.3 min. The compound `CC1(C)[C@H]2C[C@H](CCCCOCC(=O)O)[C@@H](NC(=O)c3cccc4ccsc34)[C@@H]1C2` [IIc-34] gave a melting point of 95 to 96 °C. Also, the IC50 at PGD2 receptor worked out at 11 nM. The same compound yielded a half-life in data set [1] of 66.7 min. The compound `O=C(O)COCCCC[C@H]1[C@@H]2CC[C@@H](C2)[C@@H]1NC(=O)c1csc2cc(O)ccc12` [Ic-22] gave a melting point of 76 to 79 °C. Also, the IC50 on PGD2 receptor came to 10 nM.
